Results as given in PMC8590286, “A novel CD123-targeted therapeutic peptide loaded by micellar delivery system combats refractory acute myeloid leukemia” (Journal of Hematology & Oncology, 2021).
Counter-ions that a name gives are not always drawn.

How the values were obtained:
[1] = tested on: CD123^+ AML cell line MOLM-13 cells; assay: Flow cytometry binding of FITC-labeled peptide/micelles to MOLM-13 cells; assay type: cell-based, human; details: 0.1 and 0.5 μM, 0.5 h
Description: Fig. 1 A Affinity of ^mPO-6 to MOLM-13 cells incubated at 0.1 and 0.5 μM for 0.5 h. B Images of ^mPO-6 bound with MOLM-13 cells at 0.1 μM for 0.5 h obtained from the laser confocal microscopy. C Effects of ^mPO-6 on the cell viability in the presence of IL-3 (n = 4). D and E Effects of ^mPO-6 on the cell viability of the primary AML blasts.
(§1) Fig. S1. Affinity of PO-6 and ^mPO-6 to different leukemia cells. The MOLM-13, K562 or HL-60 cells was incubated with PO-6 or ^mPO-6 at 0.1 and 0.5 μM for 0.5 h. Resulting cells were collected and subjected to C6 Accuri® flow cytometer.
(§2) MOLM-13, HL-60 and K562 cells of 4×10^5/mL were incubated with FITC-labeled PO-6 or ^mPO-6 at 0.1 μM and 0.5 μM for 0.5 h. After twice washed with PBS, subjected to C6 Accuri® flow cytometer (Accuri Cytometers, Ann Arbor, MI) and 1×10^4 cells were collected. Acquired data were analyzed by CFlow Plus software.

[2] = tested on: CD123^− AML cell line HL-60; assay: Flow cytometry binding of FITC-labeled peptide to HL-60 cells; assay type: cell-based, human; details: 0.1 and 0.5 μM, 0.5 h
Description: as §1, §2

[3] = tested on: chronic myeloid leukemia cell line K562 cells; assay: Flow cytometry binding of FITC-labeled peptide to K562 cells; assay type: cell-based, human; details: 0.1 and 0.5 μM, 0.5 h
Description: as §1, §2

AE & CKIT^D816V mice = assay: Survival experiments of Ara-C or HHT in AE & CKIT^D816V AML mice; assay type: in vivo, mouse; details: for median survival of AML mice treated with Ara-C: 25, 50 and 100 mg/kg i.p. daily for 4 days from day 9, versus Con, n=9; for median survival of AML mice treated with HHT: 250 μg/kg i.p. every 2 days from day 9, n=8
Description: The regimen of cytarabine hydrochloride (Ara-C): On day 9 after AE & CKIT^D816V cells implantation, the mice were randomly divided into 4 groups (n=9) including Con (5% glucose), 25, 50 and 100 mg/kg Ara-C. All mice were treated with daily intraperitoneal (i.p.) injections for 4 days and stopped. The survival of the mice was recorded every day.
The regimen of homoharringtonine (HHT): On day 9 after AE & CKIT^D816V cells implantation, the mice were randomly divided into 2 groups (n=8) and i.p. injected with 5% glucose and 250 μg/kg HHT. The administration was given every 2 days. The survival of the mice was recorded every day.
Fig. S7. Therapeutic efficacy of Ara-C or HHT in AE & CKIT^D816V mice. (A) The median survival of AML mice treated with Ara-C was not prolonged compared with the Con group (n=9). […] On day 9 after AE & CKIT^D816V cells implantation, AML mice were treated with i.p. injection of 5% glucose, Ara-C (25, 50 and 100 mg/kg) or HHT (250 μg/kg) as the regimens described.

DDDYDTRAQGTDIGCDFRRISDDD [PO-6]
binding to MOLM-13 cells [1]: effectively bind
binding to HL-60 cells [2]: weakly bind
binding to K562 cells [3]: weakly bind

Nc1ccn([C@@H]2O[C@H](CO)[C@@H](O)[C@@H]2O)c(=O)n1 [cytarabine hydrochloride]
median survival of AML mice treated with Ara-C (AE & CKIT^D816V mice): did not respond
median survival of AML mice treated with Ara-C (AE & CKIT^D816V mice; listed as Ara-C): not prolonged

COC(=O)C[C@](O)(CCCC(C)(C)O)C(=O)O[C@@H]1C(OC)=C[C@]23CCCN2CCc2cc4c(cc2[C@H]13)OCO4 [homoharringtonine]
median survival of AML mice treated with HHT (AE & CKIT^D816V mice): did not respond
median survival of AML mice treated with HHT (AE & CKIT^D816V mice; listed as HHT): did not prolong the AML mice median survival significantly
